The results in this text go back to ChEMBL document CHEMBL1201862, “PubChem BioAssay data set” (2004).

The structures appear in SMILES notation.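 Cultured in 96-well plates, cells were exposed to test compound for 48 hours across five concentrations. Here, GI50 denotes the concentration required for 50% inhibition of growth.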 Active and inactive are the calls of the source. Rule as the data show it: active = GI50 up to about 1.1 µM and inactive = higher.

The GI50 is the concentration giving 50% growth inhibition.

Some test systems named below: A498; A549; ACHN; CCRF-CEM; DU-145; HOP-62; MDA-MB-231; Malme-3M; NCI-H226; NCI-H460; NCI-H522; NCI/ADR-RES; OVCAR-3; OVCAR-5; OVCAR-8; SK-MEL-28; SNB-19; SR; TK-10; U-251.
Experiment in all cases: DTP human tumour cell line panel, 48 h

In the case of `O=C(O)c1cccc(S(=O)(=O)NCCO)c1`, the GI50 in the test on A498, in the test with A549, with ACHN, in the test on CCRF-CEM, with DU-145 and in the test on HOP-62 was > 100 µM (inactive) each time. Further, the GI50 in the test on MDA-MB-231, in the test on Malme-3M, with NCI-H226, in the test with NCI-H460, with NCI-H522 and in the test with NCI/ADR-RES was > 100 µM (inactive) throughout. Moreover, the GI50 with OVCAR-3, in the test on OVCAR-5, in the test on OVCAR-8, in the test with SK-MEL-28, with SNB-19 and with SR was > 100 µM (inactive) each time. Further, the GI50 in the test with TK-10 and with U-251 was > 100 µM (inactive) throughout.
With `Cc1ccc(C(=O)C(Cl)C(Cl)c2ccc(C)cc2)cc1` (stereo not given), the GI50 is 16.3 µM (inactive) with A498; 21.9 µM (inactive) with A549; 1.72 µM (inactive) in the test with ACHN; 0.622 µM (active) in the test with CCRF-CEM; 5.18 µM (inactive) with DU-145; 18.1 µM (inactive) in the test on HOP-62. The GI50 was 5.14 µM (inactive) with MDA-MB-231; 15.3 µM (inactive) with Malme-3M; 5.04 µM (inactive) with NCI-H226; 8.38 µM (inactive) in the test with NCI-H460; 2.52 µM (inactive) in the test with NCI-H522; 2.55 µM (inactive) in the test on NCI/ADR-RES. Also, the GI50 is 3.42 µM (inactive) with OVCAR-3; 7.87 µM (inactive) in the test with OVCAR-5; 2.72 µM (inactive) in the test on OVCAR-8; 2.68 µM (inactive) in the test with SK-MEL-28; 8.2 µM (inactive) in the test with SNB-19; 1.82 µM (inactive) in the test on SR. Besides, the GI50 with TK-10 was 2.99 µM (inactive); in the test with U-251 it was 3.46 µM (inactive).
In the case of `CCOC(=O)C(Cl)(NC(=O)c1ccc(F)cc1)C(F)(F)F` (stereo not given), the GI50 with A498, with A549, in the test with ACHN, with CCRF-CEM, with DU-145 and in the test with HOP-62 was > 100 µM (inactive) each time. Besides, the GI50 in the test with MDA-MB-231, with Malme-3M, in the test with NCI-H226, in the test on NCI-H460, in the test on NCI-H522 and in the test on NCI/ADR-RES was > 100 µM (inactive) each time. Moreover, the GI50 with OVCAR-3, in the test on OVCAR-5, in the test with OVCAR-8, with SK-MEL-28, in the test with SNB-19 and in the test with SR was > 100 µM (inactive) each time. For the same compound, the GI50 in the test on TK-10 and in the test with U-251 was > 100 µM (inactive) throughout.
For `COc1cc(C(C[N+](=O)[O-])SC(C)=O)ccc1OCc1ccccc1` (stereo not given), the GI50 is 7.57 µM (inactive) in the test with A498; 9.33 µM (inactive) in the test on A549; 9.55 µM (inactive) with ACHN; 1.18 µM (inactive) in the test on CCRF-CEM; 13.3 µM (inactive) with DU-145; 7.18 µM (inactive) in the test on HOP-62. The GI50 was 4.93 µM (inactive) with MDA-MB-231; 12.3 µM (inactive) with Malme-3M; 7.91 µM (inactive) with NCI-H226; 8.95 µM (inactive) in the test with NCI-H460; 0.345 µM (active) with NCI-H522; 12.2 µM (inactive) in the test with NCI/ADR-RES. Besides, the GI50 in the test on OVCAR-3 was 3.01 µM (inactive); with OVCAR-5, 14.8 µM (inactive); in the test on OVCAR-8 it was 5.9 µM (inactive); in the test on SK-MEL-28, 2.54 µM (inactive); in the test on SNB-19, 8.24 µM (inactive); in the test on SR, 1.79 µM (inactive). The GI50 is 6.35 µM (inactive) with TK-10 and 6.9 µM (inactive) with U-251.
Regarding `O=C(Nc1ccc(Cl)cc1)c1cc(S(=O)(=O)Nc2nnc3c(Cl)cc(C(F)(F)F)cn23)c(S)cc1Cl`, the GI50 in the test on A498 is 28.7 µM (inactive); in the test on A549, > 100 µM (inactive); in the test on ACHN, > 100 µM (inactive); in the test on CCRF-CEM it was > 100 µM (inactive); with DU-145, > 100 µM (inactive); in the test with HOP-62 it was 54.5 µM (inactive). For the same compound, the GI50 in the test on MDA-MB-231 was 33.8 µM (inactive); in the test with Malme-3M, > 100 µM (inactive); in the test on NCI-H226 it was > 100 µM (inactive); with NCI-H460, 43.1 µM (inactive); with NCI-H522 it was 80 µM (inactive); in the test on NCI/ADR-RES it was > 100 µM (inactive). The GI50 with OVCAR-3 was > 100 µM (inactive); in the test with OVCAR-5, > 100 µM (inactive); in the test with OVCAR-8 it was > 100 µM (inactive); in the test with SK-MEL-28, > 100 µM (inactive); in the test with SNB-19 it was 52.2 µM (inactive); in the test with SR, 29.6 µM (inactive). In addition, the GI50 in the test on TK-10 was > 100 µM (inactive); with U-251, 56.5 µM (inactive).
As for `COC(=O)C1=C(C(=O)OC)C(C(=O)c2ccccc2)N2N=C(c3ccc(Cl)cc3)C=CC12` (stereo not given), the GI50 with A498 was > 100 µM (inactive); with A549, 31 µM (inactive); in the test on ACHN, > 100 µM (inactive); with CCRF-CEM, 13.6 µM (inactive); with DU-145 it was > 100 µM (inactive); with HOP-62, > 100 µM (inactive). Besides, the GI50 in the test on MDA-MB-231 was > 100 µM (inactive); in the test with Malme-3M, 11.2 µM (inactive); with NCI-H226, 13.9 µM (inactive); with NCI-H460, 37.1 µM (inactive); with NCI-H522 it was 5.07 µM (inactive); in the test on NCI/ADR-RES, 8.07 µM (inactive). Moreover, the GI50 in the test with OVCAR-3 was > 100 µM (inactive); with OVCAR-5 it was > 100 µM (inactive); with OVCAR-8, 12.4 µM (inactive); in the test with SK-MEL-28, > 100 µM (inactive); with SNB-19, > 100 µM (inactive); with SR, > 100 µM (inactive). The values for the GI50 with TK-10 and in the test with U-251 were 2.85 µM (inactive) and > 100 µM (inactive), respectively.
Take `COc1cccc2c1C(=O)c1c(O)c3c(c(O)c1C2=O)C[C@@](O)(C(=O)CO)CC3OC1CC(N)C(OC2CCCCO2)C(C)O1` (stereo not given in full): the GI50 in the test on A498 is 0.309 µM (active); in the test on A549, 0.256 µM (active); in the test on ACHN, 0.24 µM (active); in the test with CCRF-CEM, 0.168 µM (active); in the test with DU-145, 0.0031 µM (active); with HOP-62 it was 0.144 µM (active). The GI50 was 0.0802 µM (active) in the test with MDA-MB-231; 0.664 µM (active) in the test on Malme-3M; 0.419 µM (active) in the test with NCI-H226; 0.0134 µM (active) in the test with NCI-H460; 0.541 µM (active) in the test with NCI-H522; 0.959 µM (active) in the test on NCI/ADR-RES. For the same compound, the GI50 in the test with OVCAR-3 was 1.56 µM (inactive); with OVCAR-5, 1.71 µM (inactive); in the test on OVCAR-8 it was 0.35 µM (active); in the test on SK-MEL-28, 1.5 µM (inactive); in the test on SNB-19, 0.437 µM (active); in the test with SR it was 0.0314 µM (active). Moreover, the GI50 was 1.37 µM (inactive) in the test on TK-10 and 0.402 µM (active) in the test on U-251.
